Reference: ChEMBL document CHEMBL1133242, “Selective alpha1a adrenergic receptor antagonists based on 4-aryl-3,4-dihydropyridine-2-ones” (Bioorg Med Chem Lett, 2000)
pKi: −log10 of the molar value.

Columns and labels:
[1] = molecular target: T1, Alpha-1B adrenergic receptor (Homo sapiens, UniProt P35368); experiment: In vitro antagonism at Alpha-1B adrenergic receptor; format: functional
T1 sequence (P35368 whole entry): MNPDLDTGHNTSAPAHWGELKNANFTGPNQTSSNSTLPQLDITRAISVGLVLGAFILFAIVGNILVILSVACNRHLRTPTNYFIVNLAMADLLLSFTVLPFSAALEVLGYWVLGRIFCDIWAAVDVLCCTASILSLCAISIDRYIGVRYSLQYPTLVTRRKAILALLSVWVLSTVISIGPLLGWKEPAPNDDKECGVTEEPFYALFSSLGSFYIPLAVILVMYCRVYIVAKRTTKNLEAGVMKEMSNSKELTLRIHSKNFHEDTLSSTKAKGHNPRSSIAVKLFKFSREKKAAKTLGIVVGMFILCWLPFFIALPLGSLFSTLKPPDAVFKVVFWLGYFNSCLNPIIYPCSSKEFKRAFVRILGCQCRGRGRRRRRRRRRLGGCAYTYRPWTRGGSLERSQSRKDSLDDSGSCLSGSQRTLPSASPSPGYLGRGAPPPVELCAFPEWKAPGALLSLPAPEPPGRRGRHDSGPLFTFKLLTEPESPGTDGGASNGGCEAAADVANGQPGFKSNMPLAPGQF

[2] = molecular target: T2, Alpha-1A adrenergic receptor (Homo sapiens, UniProt P35348); experiment: In vitro antagonism at Alpha-1A adrenergic receptor; format: functional
T2 sequence (P35348 whole entry): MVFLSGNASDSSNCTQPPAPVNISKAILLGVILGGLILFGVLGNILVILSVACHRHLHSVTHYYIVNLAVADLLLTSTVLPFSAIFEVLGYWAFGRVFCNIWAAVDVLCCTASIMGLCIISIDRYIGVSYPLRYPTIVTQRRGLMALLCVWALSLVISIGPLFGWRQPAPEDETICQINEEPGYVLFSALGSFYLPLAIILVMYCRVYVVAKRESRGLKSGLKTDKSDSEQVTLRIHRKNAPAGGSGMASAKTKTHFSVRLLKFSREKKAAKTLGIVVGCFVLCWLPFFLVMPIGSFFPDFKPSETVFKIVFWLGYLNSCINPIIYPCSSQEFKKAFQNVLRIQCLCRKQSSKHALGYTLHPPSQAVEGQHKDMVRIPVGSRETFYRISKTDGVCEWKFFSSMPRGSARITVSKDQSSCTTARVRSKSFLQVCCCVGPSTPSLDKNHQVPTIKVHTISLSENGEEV

[3] = molecular target: T3, Alpha-1D adrenergic receptor (Homo sapiens, UniProt P25100); experiment: In vitro antagonism at Alpha-1D adrenergic receptor; format: functional
T3 sequence (P25100 whole entry): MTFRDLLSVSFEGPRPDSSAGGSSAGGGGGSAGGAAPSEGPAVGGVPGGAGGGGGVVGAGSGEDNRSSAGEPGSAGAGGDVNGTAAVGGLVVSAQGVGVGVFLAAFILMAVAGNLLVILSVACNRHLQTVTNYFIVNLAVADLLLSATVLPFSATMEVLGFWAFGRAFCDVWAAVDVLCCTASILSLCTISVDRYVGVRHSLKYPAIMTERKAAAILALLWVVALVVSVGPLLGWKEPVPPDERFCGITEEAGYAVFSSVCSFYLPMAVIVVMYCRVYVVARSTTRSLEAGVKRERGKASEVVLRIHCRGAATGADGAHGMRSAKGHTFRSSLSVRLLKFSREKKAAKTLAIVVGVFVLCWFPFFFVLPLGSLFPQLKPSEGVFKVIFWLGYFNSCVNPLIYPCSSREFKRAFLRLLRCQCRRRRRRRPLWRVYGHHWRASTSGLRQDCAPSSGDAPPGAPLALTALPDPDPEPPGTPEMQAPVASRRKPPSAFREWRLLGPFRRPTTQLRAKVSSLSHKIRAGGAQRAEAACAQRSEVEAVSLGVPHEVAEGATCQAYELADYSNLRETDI

[4] = molecular target: Histamine H1 receptor (Homo sapiens, UniProt P35367); experiment: Selectivity screen against human Histamine H1 receptor
Sequence of Histamine H1 receptor (P35367 whole entry): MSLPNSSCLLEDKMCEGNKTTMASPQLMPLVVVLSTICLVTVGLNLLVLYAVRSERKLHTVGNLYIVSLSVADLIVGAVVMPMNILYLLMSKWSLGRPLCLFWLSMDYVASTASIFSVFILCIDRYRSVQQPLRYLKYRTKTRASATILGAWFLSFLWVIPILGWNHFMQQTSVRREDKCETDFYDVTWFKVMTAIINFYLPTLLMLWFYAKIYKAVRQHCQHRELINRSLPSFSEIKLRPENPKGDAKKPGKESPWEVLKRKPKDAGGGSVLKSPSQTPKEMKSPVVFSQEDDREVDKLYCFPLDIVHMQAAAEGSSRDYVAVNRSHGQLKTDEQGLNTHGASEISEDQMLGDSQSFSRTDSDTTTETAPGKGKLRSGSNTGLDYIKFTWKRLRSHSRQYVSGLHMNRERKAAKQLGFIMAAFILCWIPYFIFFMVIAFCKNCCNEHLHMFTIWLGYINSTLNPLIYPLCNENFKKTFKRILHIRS

[5] = species: Rattus norvegicus; experiment: Dose required to inhibit the prostate contractile response by 50% after challenge with selective alpha-1a agonist A61603 and duration of action was 4 hr in an in situ rat prostate model; format: functional, Prostate gland
[6] = molecular target: T4, Alpha-2C adrenergic receptor (Homo sapiens, UniProt P18825); experiment: […] inhibitory effect against Alpha-2C adrenergic receptor
T4 sequence (P18825 whole entry): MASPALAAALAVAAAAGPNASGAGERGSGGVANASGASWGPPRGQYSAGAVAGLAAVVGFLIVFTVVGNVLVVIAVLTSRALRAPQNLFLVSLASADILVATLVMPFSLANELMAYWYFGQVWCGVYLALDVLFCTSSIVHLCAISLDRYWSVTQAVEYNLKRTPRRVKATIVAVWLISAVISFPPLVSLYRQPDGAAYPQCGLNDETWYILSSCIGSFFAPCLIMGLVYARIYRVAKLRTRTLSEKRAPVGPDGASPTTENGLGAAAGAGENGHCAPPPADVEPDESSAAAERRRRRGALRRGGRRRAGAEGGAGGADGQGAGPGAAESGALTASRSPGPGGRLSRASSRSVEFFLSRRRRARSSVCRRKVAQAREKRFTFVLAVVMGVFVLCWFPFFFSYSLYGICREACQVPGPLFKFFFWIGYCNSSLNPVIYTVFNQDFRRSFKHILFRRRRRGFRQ

[7] = molecular target: T5, Alpha-2B adrenergic receptor (Homo sapiens, UniProt P18089); experiment: […] inhibitory effect against alpha-2b Adrenergic receptor
T5 sequence (P18089 whole entry): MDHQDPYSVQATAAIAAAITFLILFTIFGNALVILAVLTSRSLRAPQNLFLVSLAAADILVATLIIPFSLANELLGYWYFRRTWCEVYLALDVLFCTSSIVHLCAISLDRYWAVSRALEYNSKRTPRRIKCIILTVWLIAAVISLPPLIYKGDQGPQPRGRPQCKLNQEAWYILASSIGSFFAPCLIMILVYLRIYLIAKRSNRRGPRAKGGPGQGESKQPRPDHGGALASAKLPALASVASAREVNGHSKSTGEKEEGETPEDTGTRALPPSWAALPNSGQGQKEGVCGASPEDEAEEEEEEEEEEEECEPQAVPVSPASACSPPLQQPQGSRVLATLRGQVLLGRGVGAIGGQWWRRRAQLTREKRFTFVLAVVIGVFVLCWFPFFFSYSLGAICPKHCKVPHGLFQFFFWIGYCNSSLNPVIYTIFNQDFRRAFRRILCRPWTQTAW

[8] = molecular target: T6, Alpha-2A adrenergic receptor (Homo sapiens, UniProt P08913); experiment: […] inhibitory effect against Alpha-2A adrenergic receptor
T6 sequence (P08913 whole entry): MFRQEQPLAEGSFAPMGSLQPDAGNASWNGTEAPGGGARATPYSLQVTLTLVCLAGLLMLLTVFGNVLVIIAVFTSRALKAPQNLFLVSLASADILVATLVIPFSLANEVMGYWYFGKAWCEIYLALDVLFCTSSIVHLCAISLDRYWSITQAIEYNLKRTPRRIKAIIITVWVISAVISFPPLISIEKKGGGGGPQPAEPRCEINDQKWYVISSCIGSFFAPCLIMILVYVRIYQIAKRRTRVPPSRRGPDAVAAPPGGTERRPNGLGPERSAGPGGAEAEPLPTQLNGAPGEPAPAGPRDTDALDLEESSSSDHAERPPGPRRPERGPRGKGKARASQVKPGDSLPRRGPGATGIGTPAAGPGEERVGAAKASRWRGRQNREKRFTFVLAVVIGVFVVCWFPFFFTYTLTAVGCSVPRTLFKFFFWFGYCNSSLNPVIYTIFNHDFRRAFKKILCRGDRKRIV

[9] = t1/2 value in rat; format: ADME, organism-based; details: in vivo
[10] = species: Rattus norvegicus; experiment: Dose required to inhibit the prostate contractile response by 50% after challenge with selective alpha-1a agonist A61603 in an in situ rat prostate model; format: functional, Prostate gland
[11] = species: Rattus norvegicus; experiment: Dose required to inhibit the prostate contractile response by 50% after challenge with selective alpha-1a agonist A61603 and duration of action was 1.5h in an in situ rat prostate model; format: functional, Prostate gland
[12] = species: Rattus norvegicus; experiment: Dose required to inhibit the prostate contractile response by 50% after challenge with selective alpha-1a agonist A61603 and duration of action was 1 hr in an in situ rat prostate model; format: functional, Prostate gland
[13] = Percent bioavailability in dog; format: ADME, organism-based, Canis lupus familiaris; details: in vivo, read-out: Bioavailabiility
[14] = species: Rattus norvegicus; experiment: Dose required to inhibit the prostate contractile response by 50% after challenge with selective alpha-1a agonist A61603 and duration of action was 2.5h in an in situ rat prostate model; format: functional, Prostate gland
[15] = species: Rattus norvegicus; experiment: Dose required to inhibit the prostate contractile response by 50% after challenge with selective alpha-1a agonist A61603 and duration of action was 3.5h in an in situ rat prostate model; format: functional, Prostate gland

Structure (SMILES)	pKi [1]	pKi [2]	pKi [3]	pKi [4]	pKi [6]	pKi [7]	pKi [8]	half-life [9] [h]	bioavailability [13] [%]	AD50 [5] [mg/kg]	AD50 [10] [mg/kg]	AD50 [11] [mg/kg]	AD50 [12] [mg/kg]	AD50 [14] [mg/kg]	AD50 [15] [mg/kg]
CC1=C(C(=O)NCCCN2CCC(C#N)(c3ccc(F)cc3)CC2)[C@@H](c2ccc(F)c(F)c2)CC(=O)N1	5.98	8.74	5.98	7.20	–	–	–	–	–	–	–	–	–	–	–
CC1=C(C(=O)NCCCN2CCC(C#N)(c3ccc(F)cc3F)CC2)[C@@H](c2ccc(F)c(F)c2)CC(=O)N1	6.09	9.00	6.23	6.97	5.70	6.27	5.71	–	–	–	–	0.017	–	–	–
CC1=C(C(=O)NCCCN2CCC(C#N)(c3ccc(F)cc3F)CC2)[C@@H](c2ccc(F)c(F)c2)CC(=O)N1C	6.07	8.96	5.94	6.52	5.72	6.02	5.47	–	–	–	–	–	0.029	–	–
CC1=C(C(=O)NCCCN2CCC(c3ccccc3C#N)CC2)[C@@H](c2ccc(F)c(F)c2)CC(=O)N1C	5.92	8.52	6.17	–	–	–	–	–	–	–	–	–	–	–	–
CC1=C(C(=O)NCCCN2CCC(C#N)(c3ccccn3)CC2)[C@@H](c2ccc(F)c(F)c2)CC(=O)N1C	< 5.70	–	< 5.30	–	–	–	–	–	–	–	–	–	–	–	–
CC1=C(C(=O)NCC(C)CN2CCC(C#N)(c3ccccn3)CC2)[C@@H](c2ccc(F)c(F)c2)CC(=O)N1 (stereo not given in full)	< 5.70	7.38	< 5.30	–	–	–	–	–	–	–	–	–	–	–	–
CC1=C(C(=O)NCCCN2CCC(C#N)(c3ccc(F)cc3C#N)CC2)[C@@H](c2ccc(F)c(F)c2)CC(=O)N1	< 5.70	8.85	< 5.30	7.04	5.33	6.17	5.11	–	–	–	–	–	–	–	–
CC1=C(C(=O)NCCCN2CCC(C#N)(c3ccc(F)cc3C#N)CC2)[C@@H](c2ccc(F)c(F)c2)CC(=O)N1C	< 5.70	8.15	< 5.30	6.21	5.19	5.75	4.86	–	–	–	–	–	–	–	–
CC1=C(C(=O)NCCCN2CCC(C#N)(c3ccccc3C#N)CC2)[C@@H](c2ccc(F)c(F)c2)CC(=O)N1C	< 5.70	7.89	< 5.30	–	–	–	–	–	–	–	–	–	–	–	–
CC1=C(C(=O)NCCCN2CCC(C#N)(c3ccccc3C#N)CC2)[C@@H](c2ccc(F)c(F)c2)CC(=O)N1	< 5.70	8.49	< 5.30	–	–	–	–	–	–	–	–	–	–	–	–
CCOc1ccccc1OCCN[C@H](C)Cc1ccc(OC)c(S(N)(=O)=O)c1 [TAMSULOSIN]	–	–	–	–	–	–	–	–	–	–	–	–	–	–	0.003

Further lines, with some results ahead:

pKi [1]	pKi [2]	pKi [3]	pKi [4]	pKi [6]	pKi [7]	pKi [8]	half-life [9] [h]	bioavailability [13] [%]	Structure (SMILES)	AD50 [5] [mg/kg]	AD50 [10] [mg/kg]	AD50 [11] [mg/kg]	AD50 [12] [mg/kg]	AD50 [14] [mg/kg]	AD50 [15] [mg/kg]
7.27	9.15	6.60	–	–	–	–	–	–	CC1=C(C(=O)NCCCN2CCC(c3ccc(F)cc3)CC2)[C@@H](c2ccc(F)c(F)c2)CC(=O)N1C	–	–	–	–	–	–
6.44	9.10	6.23	6.40	5.41	6.54	5.34	1.4	–	CC1=C(C(=O)NCCCN2CCC(c3ccc(F)cc3C#N)CC2)[C@@H](c2ccc(F)c(F)c2)CC(=O)N1C	0.009	–	–	–	–	–
6.37	8.72	6.06	6.45	5.96	6.11	5.73	–	–	CC1=C(C(=O)NCCCN2CCC(C#N)(c3ccc(F)cc3)CC2)[C@@H](c2ccc(F)c(F)c2)CC(=O)N1C	–	0.025	–	–	–	–
6.48	9.00	6.48	–	–	–	–	–	–	CC1=C(C(=O)NCCCN2CCC(c3ccccc3C#N)CC2)[C@@H](c2ccc(F)c(F)c2)CC(=O)N1	–	–	–	–	–	–
7.00	9.70	6.82	7.24	5.83	6.84	5.89	4.8	34	CC1=C(C(=O)NCCCN2CCC(c3ccc(F)cc3C#N)CC2)[C@@H](c2ccc(F)c(F)c2)CC(=O)N1	–	–	–	–	0.005	–
7.43	9.40	6.70	7.72	6.50	6.79	6.64	–	–	CC1=C(C(=O)NCCCN2CCC(c3ccc(F)cc3)CC2)[C@@H](c2ccc(F)c(F)c2)CC(=O)N1	–	0.032	–	–	–	–
